Test [1] addresses T1, HIV-1 RT resistant mutant K103N/Y181C (Human immunodeficiency virus type 1 group M subtype B, UniProt P04585, K690N/Y768C).
T1 construct: The reverse transcriptase (RT) enzyme assay has been adapted to a 96-well microtiter plate format
The test is described as follows: Reverse transcriptase (RT) enzymatic assay (IC50), PicoGreen fluorescence, resistant mutant. It is filed as biochemical.

In test [2] the target is T2, HIV-1 RT enzyme (wild type) (Human immunodeficiency virus type 1 group M subtype B, UniProt P04585).
T2 construct: The reverse transcriptase (RT) enzyme assay has been adapted to a 96-well microtiter plate format
The test is described as follows: Reverse transcriptase (RT) enzymatic assay (IC50), PicoGreen fluorescence, wild type. It is filed as biochemical. In short, it runs like this: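 Enzyme at ≈10 nM in 50 mM Tris/HCl pH 7.8 with 60 mM NaCl, 2 mM MgCl2, 6 mM DTT, 2 mM GSH, 0.02% Chaps; 15 min preincubation with compound at room temperature, then substrate added and run 50 min at 37 °C. EDTA quench; product DNA read by PicoGreen fluorescence.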

Test [3] relates to HIV-1 resistant mutant K103N/Y181C. The test can be described thus: P24 cellular assay (EC50), data identified with * in Table 9, resistant mutant. It is filed as cell-based. The settings on record: Human immunodeficiency virus 1, read-out: EC50 K103N/Y181C. An excerpt:
(§1) P24 Cellular Assay (EC50) (Data Identified with * in Table 9).
(§2) The p24 assay is as described in WO 01/96338, the contents of which are herein incorporated by reference.
(§3) The results are listed in Table 9 as IC50(nM) and EC50 (nM).
(§4) Table legend: A=>100; B=100-50; C=<50; NT=not tested

The test system of a further test is HIV-1 (wild type). The test is described as follows: P24 cellular assay (EC50), data identified with * in Table 9, wild type. It is filed as cell-based. The settings on record: Human immunodeficiency virus 1.
From the text: as §1, §2, §3, §4

[4] abbreviates: RT enzymatic assay, wild type, read-out: IC50 WT.

Like-named read-outs stand apart in the source and are kept apart here.

Regarding `Cc1cc(Br)cc(C)c1-n1nnnc1SCC(=O)Nc1ccccc1[N+](=O)[O-]` [Entry 140], the IC50 is more than 100 nM in test [1] and less than 50 nM in test [2]. The EC50 (in test [3]; in the test on HIV-1 (wild type)) was less than 50 nM throughout.

Take `Cc1ccccc1-n1nnnc1SCC(=O)Nc1ccccc1[N+](=O)[O-]` [Entry 109]: the IC50 in test [1] is more than 100 nM; in test [2], 50 to 100 nM. The EC50 in test [3] is more than 100 nM; in the test on HIV-1 (wild type), less than 50 nM.

Take `CC(Sc1nnnn1-c1cccc2ccccc12)C(=O)Nc1ccccc1[N+](=O)[O-]` (centres unmarked) [Entry 301]: the IC50 is more than 100 nM in test [1] and 50 to 100 nM in test [2]. Besides, the values for the EC50 (in test [3]; in the test with HIV-1 (wild type)) were more than 100 nM and less than 50 nM, respectively.

As to `Cc1cc(C)c(-n2nnnc2SCC(=O)Nc2ccccc2[N+](=O)[O-])c(C)c1` [Entry 141], the IC50 in test [1] and in test [2] was more than 100 nM throughout. Further, the EC50 (in test [3]; in the test with HIV-1 (wild type)) was less than 50 nM in each case.

As for `COc1cc(-n2nnnc2SCC(=O)Nc2ccccc2[N+](=O)[O-])c(Cl)cc1Cl` [Entry 133], the IC50 was more than 100 nM in test [1] and less than 50 nM in test [2]. The values for the EC50 (in test [3]; in the test with HIV-1 (wild type)) were more than 100 nM and less than 50 nM, respectively.

Consider `Cc1c(Cl)cccc1-n1nnnc1SCC(=O)Nc1ccccc1[N+](=O)[O-]` [Entry 124], for which the IC50 was more than 100 nM in test [1] and less than 50 nM in test [2]. Besides, the EC50 was 50 to 100 nM in test [3] and less than 50 nM with HIV-1 (wild type).

Regarding `Cc1cccc(-n2nnnc2SCC(=O)Nc2ccccc2[N+](=O)[O-])c1` [Entry 118], the IC50 in test [1] was more than 100 nM; in test [2], 50 to 100 nM. Moreover, the EC50 in test [3] was more than 100 nM; in the test on HIV-1 (wild type), less than 50 nM.

Take `Cc1cccc(-n2nnnc2SCC(=O)Nc2ccccc2[N+](=O)[O-])c1C` [Entry 122]: the IC50 was more than 100 nM in test [1] and less than 50 nM in test [2]. For the same molecule, the EC50 is more than 100 nM in test [3] and less than 50 nM in the test on HIV-1 (wild type).

For `O=C(CSc1nnnn1-c1ccc2c(c1)CCC2)Nc1ccccc1[N+](=O)[O-]` [Entry 105], the IC50 in test [1] is more than 100 nM; in test [2], less than 50 nM. In addition, the EC50 in test [3] is more than 100 nM; in the test with HIV-1 (wild type), less than 50 nM.

As to `O=C(CSc1nnnn1-c1ccc2ccccc2c1)Nc1ccccc1[N+](=O)[O-]` [Entry 103], the IC50 in test [1] is more than 100 nM; in test [2] it was less than 50 nM. Further, the EC50 is more than 100 nM in test [3] and less than 50 nM in the test on HIV-1 (wild type).

For the molecule `COc1ccc(-n2nnnc2SCC(=O)Nc2ccccc2[N+](=O)[O-])c(C)c1` [Entry 127], the results for the concentration for half-maximal inhibition (IC50) in test [1] and in test [2] were more than 100 nM and less than 50 nM, respectively. Also, the EC50 in test [3] was more than 100 nM; with HIV-1 (wild type), less than 50 nM.

For the molecule `O=C(CSc1nnnn1-c1ccccc1C(F)(F)F)Nc1ccccc1[N+](=O)[O-]` [Entry 111], the IC50 in test [1] was more than 100 nM; in test [2] it was 50 to 100 nM. Moreover, the results for the EC50 (in test [3]; in the test with HIV-1 (wild type)) were more than 100 nM and less than 50 nM, respectively.

Take `O=C(CSc1nnnn1-c1cccc2ccccc12)Nc1ccc(C(=O)O)cc1Cl` [Entry 236]: the 50% inhibitory concentration (IC50) was more than 100 nM in test [1] and 50 to 100 nM in test [2]. Besides, the EC50 (in test [3]; in the test with HIV-1 (wild type)) was more than 100 nM each time.

`Cc1ccc(F)cc1-n1nnnc1SCC(=O)Nc1ccccc1[N+](=O)[O-]` [Entry 135]: the IC50 is more than 100 nM in test [1] and less than 50 nM in test [2]. Also, the values for the EC50 (in test [3]; with HIV-1 (wild type)) were more than 100 nM and less than 50 nM, respectively.

On to `N#Cc1ccc(NC(=O)CSc2nnnn2-c2cccc3ccccc23)c(Cl)c1` [Entry 239], for which the IC50 was more than 100 nM in test [1] and 50 to 100 nM in test [2]. Also, the EC50 in test [3] was more than 100 nM; in the test on HIV-1 (wild type), less than 50 nM.

`Cc1ccc(-n2nnnc2SCC(=O)Nc2ccccc2[N+](=O)[O-])c(Cl)c1` [Entry 129]: the concentration for half-maximal inhibition (IC50) in test [1] is more than 100 nM; in test [2], less than 50 nM. Besides, the EC50 (in test [3]; in the test with HIV-1 (wild type)) was less than 50 nM throughout.

With `O=C(CSc1nnnn1-c1ccccc1Cl)Nc1ccccc1[N+](=O)[O-]` [Entry 114], the IC50 in test [1] was more than 100 nM; in test [2], less than 50 nM. Also, the EC50 was more than 100 nM in test [3] and less than 50 nM with HIV-1 (wild type).

Consider `Cc1ccc(-n2nnnc2SCC(=O)Nc2ccccc2[N+](=O)[O-])c(C)c1` [Entry 125], for which the 50% inhibitory concentration (IC50) in test [1] is more than 100 nM; in test [2], less than 50 nM. The figures for the EC50 (in test [3]; in the test with HIV-1 (wild type)) were more than 100 nM and less than 50 nM, respectively.

In the case of `CC(C)Oc1cc(-n2nnnc2SCC(=O)Nc2ccccc2[N+](=O)[O-])c(Cl)cc1Cl` [Entry 134], the 50% inhibitory concentration (IC50) is more than 100 nM in test [1] and less than 50 nM in test [2]. The EC50 in test [3] is more than 100 nM; in the test on HIV-1 (wild type), less than 50 nM.

Take `Cc1cc(C)c(-n2nnnc2SCC(=O)Nc2ccccc2Cl)c(C)c1` [Entry 421]: the IC50 was more than 100 nM in test [1] and less than 50 nM in test [2] (setting [4]). In addition, the EC50 was more than 100 nM in test [3] and less than 50 nM in the test on HIV-1 (wild type).

For the molecule `O=C(CSc1nncn1-c1cccc2ccccc12)Nc1ccccc1[N+](=O)[O-]` [Entry 402, 2-{{4-(1-Naphthalenyl)-4H-1,2,4-triazol-3-yl}thio}-N-(2-nitrophenyl)acetamide], the IC50 in test [1] was more than 100 nM; in test [2] (setting [4]) it was 50 to 100 nM. Also, the EC50 in test [3] was more than 100 nM; in the test on HIV-1 (wild type), less than 50 nM.

With `Cc1cc(Cl)ccc1-n1nnnc1SCC(=O)Nc1ccccc1[N+](=O)[O-]` [Entry 128], the IC50 in test [1] and in test [2] was more than 100 nM each time. Also, the EC50 is more than 100 nM in test [3] and less than 50 nM with HIV-1 (wild type).

Consider `O=C(CSc1nnnn1-c1cccc2c1CCCC2)Nc1ccccc1[N+](=O)[O-]` [Entry 104], for which the figures for the half-maximal inhibitory concentration (IC50) in test [1] and in test [2] were more than 100 nM and less than 50 nM, respectively. Also, the EC50 in test [3] is more than 100 nM; in the test with HIV-1 (wild type) it was less than 50 nM.

These data come from US7642277B2, “Non-nucleoside reverse transcriptase inhibitors” (Boehringer Ingelheim International GmbH, priority 2002, dated 2010).
